# Measured values as given in patent US11324728B2, “Dosing regimens for the treatment of fungal infections” (Seren Pharmaceuticals Inc., priority 2017, dated 2022).
# Assay: Pharmacokinetics: toenail and plasma ravuconazole concentrations
# Type: in vivo, human
# Procedure: A Phase II clinical pharmacology study was conducted in subjects with onychomycosis of the toenail. The study investigated the pharmacokinetics, efficacy and safety of three different dosing regimens of fosravuconazole. […] The three treatment groups were as follows: • a.
# [1] = fosravuconazole 100 mg (once daily dose) group
# [2] = fosravuconazole 400 mg (pulse treatment) group
compound,measurement,setting,value
"C[C@@H](c1nc(-c2ccc(C#N)cc2)cs1)[C@](O)(Cn1cncn1)c1ccc(F)cc1F [ravuconazole, 4-[2-[(2R,3R)-3-(2,4-difluorophenyl)-3-hydroxy-4-(1,2,4-triazol-1-yl)butan-2-yl]-1,3-thiazol-4-yl]benzonitrile]","time toenail ravuconazole concentrations maintained at MIC90 or higher, longer than in 400 mg (pulse treatment) group",[1],about 4 weeks
same,"toenail ravuconazole concentrations versus MIC90, arithmetic mean",[1],exceeded MIC90 in arithmetic mean at Week 8 and maintained at MIC90 or higher until Week 28
same,"toenail ravuconazole concentrations versus MIC90, geometric mean",[1],exceeded MIC90 at Week 12 after the study treatment initiation and maintained at MIC90 or higher until Week 24
same,toenail ravuconazole concentrations compared with 400 mg (pulse treatment) group,"fosravuconazole 100 mg (once daily dose) group, Week 20 and onwards",fluctuated at higher levels
same,"toenail ravuconazole concentrations, arithmetic mean and geometric mean",fosravuconazole 200 mg (pulse treatment) group,≤ 60 ng/mL
same,"toenail ravuconazole concentrations versus MIC90, arithmetic mean",[2],exceeded MIC90 in arithmetic mean at Week 8 after the study treatment initiation and maintained at MIC90 or higher until Week 24
same,"toenail ravuconazole concentrations versus MIC90, geometric mean",[2],exceeded MIC90 at Week 12 after the study treatment initiation and maintained at MIC90 or higher until Week 24
